Test results published in ChEMBL document CHEMBL5055664, “A Novel Anticancer Stem Cell Compound Derived from Pleuromutilin Induced Necroptosis of Melanoma Cells” (J Med Chem, 2021).
pIC50: −log10 of the molar value. ≈ marks a conversion by molar mass, not a printed value. Calls of active or inactive are those of the source. The calls are words filed in the database; no cut-off is given here.

How the values were obtained:
[1] = Cmax in Sprague-Dawley rat at 50 mg/kg, po by LC-MS/MS analysis; assay type: ADME, organism-based; set-up: dose 50 mg/kg, route po; details: in vivo
[2] = Tmax in Sprague-Dawley rat at 50 mg/kg, po by LC-MS/MS analysis; assay type: ADME, organism-based; details: in vivo
[3] = Half life in Sprague-Dawley rat at 50 mg/kg, po by LC-MS/MS analysis; assay type: ADME, organism-based; details: in vivo
[4] = MRT (0 to t) in Sprague-Dawley rat at 50 mg/kg, po by LC-MS/MS analysis; assay type: ADME, organism-based; details: in vivo
[5] = Oral bioavailability in Sprague-Dawley rat at 50 mg/kg by LC-MS/MS analysis; assay type: ADME, organism-based; details: in vivo
[6] = Cmax in Sprague-Dawley rat at 20 mg/kg, iv by LC-MS/MS analysis; assay type: ADME, organism-based; set-up: dose 20 mg/kg, route iv; details: in vivo
[7] = Tmax in Sprague-Dawley rat at 20 mg/kg, iv by LC-MS/MS analysis; assay type: ADME, organism-based; details: in vivo
[8] = Half life in Sprague-Dawley rat at 20 mg/kg, iv by LC-MS/MS analysis; assay type: ADME, organism-based; details: in vivo
[9] = MRT (0 to t) in Sprague-Dawley rat at 20 mg/kg, iv by LC-MS/MS analysis; assay type: ADME, organism-based; details: in vivo
B16-F10 [10] = assay: Cytotoxicity against mouse B16-F10 cells assessed as inhibition of cell growth measured after 72 hrs by MTT assay; assay type: functional, cell-based; details: B16-F10, 72 h
A-375 [11] = assay: Cytotoxicity against human A-375 cells assessed as inhibition of cell growth measured after 72 hrs by MTT assay; assay type: functional, cell-based; details: A-375, 72 h
4T1 = assay: Cytotoxicity against mouse 4T1 cells assessed as inhibition of cell growth measured after 72 hrs by MTT assay; assay type: functional, cell-based; details: 4T1, 72 h
Kasumi 1 = assay: cells; details: Homo sapiens, Kasumi 1, 72 h
CT26 = assay: cells; details: Mus musculus, CT26, 72 h
HCT-116 = assay: cells; details: Homo sapiens, HCT-116, 72 h
B16-F10 [12] = assay: Anticancer activity against mouse B16-F10 cancer stem cells assessed as CD44+CD24+ marker cells at 1.25 uM measured after 30 hrs by FITC/APC staining based flow cytometry (reference value: […]); assay type: functional
B16-F10 [13] = assay: Anticancer activity against mouse B16-F10 cancer stem cells assessed as CD44+CD24+ marker cells at […] measured after 30 hrs by FITC/APC staining based flow cytometry (reference value: […]); assay type: functional; details: dose 2.5 µM
B16-F10 [14] = assay: Anticancer activity against mouse B16-F10 cancer stem cells assessed as CD44+CD24+ marker cells at 5 uM measured after 30 hrs by FITC/APC staining based flow cytometry (reference value: […]); assay type: functional
A-375 [15] = assay: Anticancer activity against human A-375 cancer stem cells assessed as CD44+CD133+ marker cells at 1.25 uM measured after 30 hrs by FITC/APC staining based flow cytometry (reference value: […]); assay type: functional
A-375 [16] = assay: Anticancer activity against human A-375 cancer stem cells assessed as CD44+CD133+ marker cells at […] measured after 30 hrs by FITC/APC staining based flow cytometry (reference value: […]); assay type: functional; details: dose 2.5 µM
A-375 [17] = assay: Anticancer activity against human A-375 cancer stem cells assessed as CD44+CD133+ marker cells at 5 uM measured after 30 hrs by FITC/APC staining based flow cytometry (reference value: […]); assay type: functional
Staphylococcus aureus = assay: Antimicrobial activity against Staphylococcus aureus assessed as bacterial growth inhibition; assay type: functional
Escherichia coli = assay: Antimicrobial activity against Escherichia coli assessed as bacterial growth inhibition; assay type: functional
Bacillus subtilis = assay: Antimicrobial activity against Bacillus subtilis assessed as bacterial growth inhibition; assay type: functional
B16-F10 [18] = assay: Induction of morphological changes in mouse B16-F10 cells assessed as formation of apoptotic bodies at 0.5 to […] measured after 48 hrs by AnnexinV-FITC/propidium iodide staining based flow cytometry; assay type: functional, cell-based; details: dose 0.5-2.5 µM
B16-F10 [19] = assay: Induction of secondary necrosis in mouse B16-F10 cells at 0.5 to […] measured after 48 hrs by AnnexinV-FITC/propidium iodide staining based flow cytometry; assay type: functional, cell-based; details: dose 0.5-2.5 µM

`C=C[C@]1(C)C[C@@H](OC(=O)c2ccc(C(F)(F)F)cn2)[C@]2(C)[C@H](C)CC[C@]3(CC(=C)C(=O)[C@H]32)[C@@H](C)[C@@H]1OC(=O)c1ccc(C(F)(F)F)cn1` showed a Cmax [1] of 3650 ng/mL, a Tmax [2] of 2.67 h and a half-life [3] of 6.54 h. It also gave an MRT last [4] of 4.71 h, a bioavailability [5] of 88% and a Cmax [6] of 3400 ng/mL. It also gave a Tmax [7] of 4.98 min, a half-life [8] of 1.33 h and an MRT last [9] of 2.91 h.
Compound `C=C[C@]1(C)C[C@@H](O)[C@]2(C)[C@H](C)CC[C@]3(CC(=C)C(=O)[C@H]32)[C@@H](C)[C@@H]1OC(=O)Cc1ccc(F)cc1` has a pIC50 (B16-F10 [10]) of 5.64, a pIC50 (A-375 [11]) of 5.24 and a pIC50 (4T1) of less than 5.00. For the same compound, the pIC50 (Kasumi 1) was 5.61, the pIC50 (CT26) was less than 5.00 and the pIC50 (HCT-116) was 5.03.
`CC(=O)O[C@H]1C(=O)[C@@]2(C)[C@H]([C@H](OC(=O)c3ccccc3)[C@]3(O)C[C@H](OC(=O)[C@H](O)[C@@H](NC(=O)c4ccccc4)c4ccccc4)C(C)=C1C3(C)C)[C@]1(OC(C)=O)CO[C@@H]1C[C@@H]2O` [PACLITAXEL] gave an Activity (B16-F10 [12]) of 11.3%, an Activity (B16-F10 [13]) of 12.5% and an Activity (B16-F10 [14]) of 24%. The Activity (A-375 [15]) was 18.1%, the Activity (A-375 [16]) was 19.3% and the Activity (A-375 [17]) was 20%.
For `C=C[C@]1(C)C[C@@H](OC(=O)CO)[C@]2(C)[C@H](C)CC[C@]3(CCC(=O)[C@H]32)[C@@H](C)[C@@H]1O` [PLEUROMULIN], the pIC50 (B16-F10 [10]) was less than 4.00, the pIC50 (A-375 [11]) was less than 4.00 and the pIC50 (4T1) was less than 4.00. It also gave an MIC (Staphylococcus aureus) of 10 µg/mL (≈ 26.4 µM), an MIC (Escherichia coli) of 50 µg/mL (≈ 132 µM) and an MIC (Bacillus subtilis) of 100 µg/mL (≈ 264 µM). For the same compound, the pIC50 (Kasumi 1) was less than 4.00, the pIC50 (CT26) was less than 4.00 and the pIC50 (HCT-116) was less than 4.00.
For `COc1cccc2c1C(=O)c1c(O)c3c(c(O)c1C2=O)C[C@@](O)(C(=O)CO)C[C@@H]3O[C@H]1C[C@H](N)[C@H](O)[C@H](C)O1`, the Activity (B16-F10 [18]) was “Active” and the Activity (B16-F10 [19]) was “Active”.
